Reference: article PMC7513592 (RSC Medicinal Chemistry, 2020)

Assays:
YFP-TRPV6 = target: T1, YFP-TRPV6 (Homo sapiens, UniProt Q9H1D0); assay: Whole-cell electrophysiology on YFP-TRPV6 transfected HEK293 cells; assay type: cell-based; details: 10 mM Ca2+, read-out: inhibition of TRPV6 current densities
T1 construct: expressed in transfected cells; host or cells: HEK293 (DSMZ), transient (TransFectin)
T1 sequence (Q9H1D0 41-765 limits assumed): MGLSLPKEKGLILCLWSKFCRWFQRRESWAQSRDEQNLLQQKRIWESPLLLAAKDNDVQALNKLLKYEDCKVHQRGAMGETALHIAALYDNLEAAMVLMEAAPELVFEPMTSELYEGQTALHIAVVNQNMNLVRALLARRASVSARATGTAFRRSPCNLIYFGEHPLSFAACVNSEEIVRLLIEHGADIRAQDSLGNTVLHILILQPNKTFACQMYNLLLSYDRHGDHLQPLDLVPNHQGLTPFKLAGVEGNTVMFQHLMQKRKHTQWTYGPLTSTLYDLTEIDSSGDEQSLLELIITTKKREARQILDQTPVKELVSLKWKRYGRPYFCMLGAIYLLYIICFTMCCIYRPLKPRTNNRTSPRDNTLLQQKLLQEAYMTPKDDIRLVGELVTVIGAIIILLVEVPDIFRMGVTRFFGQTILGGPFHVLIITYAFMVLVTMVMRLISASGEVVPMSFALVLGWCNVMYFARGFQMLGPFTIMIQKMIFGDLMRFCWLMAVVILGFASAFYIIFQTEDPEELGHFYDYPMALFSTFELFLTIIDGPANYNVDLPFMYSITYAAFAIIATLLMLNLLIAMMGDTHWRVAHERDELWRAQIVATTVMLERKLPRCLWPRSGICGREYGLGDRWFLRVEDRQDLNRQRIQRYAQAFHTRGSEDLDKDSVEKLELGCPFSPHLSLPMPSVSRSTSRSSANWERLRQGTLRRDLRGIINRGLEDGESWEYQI
Method: Electrophysiological experiments on YFP-TRPV6 transiently transfected HEK293 cells confirmed the activity of 39 on TRPV6. Initially, 10 mM Ca^2+ solution was applied and after the currents reached a plateau, the inhibitors at 0.1 and 10 μM were added. […] In comparison to the previously described 1, the inhibition by 39 occurred at a slower rate and was less pronounced.
HEK293 cells (DSMZ, Germany) were cultivated in DMEM medium containing 10% FCS, 100 μg/ml streptomycin and 100 U/ml penicillin. 24 h before the experiments, a transient transfection with the peYFP-C1 TRPV6 plasmid was performed by utilising TransFectinTM Lipid Reagent (Bio-Rad).
Electrophysiological experiments were conducted at room temperature (20 - 24°C) in the whole-cell configuration with an Ag/AgCl reference electrode. Voltage ramps over a time period of 200 ms from -90 to +90 mV were performed every 5 s with a holding potential of 50 mV. The internal pipette solution consisted of 145 mM Cs-methanesulfonate, 8 mM NaCl, 5 mM MgCl2, 10 mM HEPES and 20 mM EGTA, pH 7.2. The extra cellular solution (10 mM Ca2+) contained: 145 mM NaCl, 5 mM CsCl, 1 mM MgCl 2, 10 mM HEPES, 10 mM glucose and 10 mM CaCl 2, pH 7.4. The leak-correction of the currents were conducted by subtraction of the remaining leak currents after La 3+ bock. The liquid junction potential was determined as 12 mV, though applied voltages were not corrected. […]

Water solubility = assay type: physicochemical; details: effect of added hydroxyl group, versus 31 and 32
[1] = Half-life in human liver microsomes; assay type: in vitro ADME
[2] = test system: store-operated calcium channels; assay: SOCE FLIPR assay in MDA-MB-231 cells; assay type: cell-based, human; details: 5 μM
Method: Fig. 9 A. Recording of store-operated Ca^2+ entry (SOCE) in MDA-MB-231 cells pretreated for 20 min with either DMSO or SOCE inhibitor GSK-7975A, or 1vs.39. Ca^2+ store-depletion was achieved by 10 min treatment of cells with 1 μM thapsigargin (Tg) in a nominally Ca^2+ free buffer. […] The P-value of the 1vs.39 pretreated cells is indicated above the respective bar as *** for p ≤ 0.001 or non-significant (n.s.) for p > 0.05.
MDA-MB-231 cells were trypsinized and plated at 6 x 10^4 cells/well onto 96-well black plates with clear bottom using 100 μl phenol -red free RPMI medium supplemented with 10% FBS. SOCE activity was measured 16 h later using the previousl y described FLIPR assay.11 After 16 h the medium was replaced with 50 μL of NCF loading buffer and the cells were incubated at 37 °C for 40 min, following which 50 µL of 2X drugs were manually applied (GSK-7975A, 1 or 39) and the cells were incubated for another 20 min.
Stable Ca2+-free baselines were established for 50 seconds before 50 μL of a 3X thapsigargin (Tg) was robotically administered to the cells. Cells were incubated at 37 °C and fluorescence was monitored in the presence of Tg for an additional 10 minutes before administration of 50 μL of 4X CaCl 2. The activity of SOCE was measured by calculating the area under t he curve of the Ca2+ entry traces.

O=c1ccc(CN2CCN([C@H]3CC[C@@](O)(c4cccc(C(F)(F)F)c4)CC3)CC2)c[nH]1 [compound 39]
inhibition at 0.1 µM (YFP-TRPV6; 0.1 μM): 30.8 ± 5.1% | inhibition at 10 µM (YFP-TRPV6; 10 μM): 88.2 ± 2% | water solubility (Water solubility): increased water solubility | microsomal stability [1]: high microsomal stability | half-life ([1]; human, liver microsomes, read-out: half-life in human liver microsomes (t1/2)): > 1 h | activity on store-operated calcium channels [2]: no detectable activity
